The target of one data set is human D2 receptor (Homo sapiens (Human), UniProt P14416). The data set is described as follows: Radioligand binding ([3H]-spiperone) to human D2 receptor, HEK293 EBNA membranes. The conditions noted are these: HEK293 EBNA cells expressing human D2 receptor. The gist of the method:
(§1)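 Membranes from transiently transfected HEK293 EBNA cells (~7.5 μg protein/well) were incubated 1 h at RT with [3H]-spiperone (~0.7 nM for D2, 0.5 nM for D3) and ten compound concentrations (10 μM–0.1 nM) in Tris/NaCl/MgCl2/CaCl2 buffer pH 7.4. Filtration and scintillation counting, nonspecific with 10 μM spiperone; Ki via Cheng-Prusoff.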

For the next data set, the target named is human D3 receptor (Homo sapiens (Human), UniProt P35462). The data set is described as follows: Radioligand binding ([3H]-spiperone) to human D3 receptor, HEK293 EBNA membranes. The following applies: HEK293 EBNA cells expressing human D3 receptor. The gist of the method:
as §1

A further data set has as its target human 5-HT2A receptor (Homo sapiens (Human), UniProt P28223). The data set is described as follows: Radioligand binding ([3H]-ketanserin) to human 5-HT2A receptor, HEK293 EBNA membranes. The following applies: HEK293 EBNA cells expressing human 5-HT2A receptor. The method, boiled down: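 Membranes from HEK293 EBNA cells transiently expressing the human receptor were incubated 1 h at RT with ~0.7 nM (D2) or 0.5 nM (D3) [3H]-spiperone, or 1.1 nM [3H]-ketanserin (5-HT2A), plus ten compound concentrations (10 μM–0.1 nM). Nonspecific binding was set with 10 μM spiperone; Ki was derived from IC50 via Cheng-Prusoff.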

Among the data in US8921397B2, “Benzofurane-piperidine compounds” (Hoffmann-La Roche Inc., priority 2011, dated 2014) are Ki and melting point values, retold here.

Sequence of human D2 receptor (P14416 whole entry): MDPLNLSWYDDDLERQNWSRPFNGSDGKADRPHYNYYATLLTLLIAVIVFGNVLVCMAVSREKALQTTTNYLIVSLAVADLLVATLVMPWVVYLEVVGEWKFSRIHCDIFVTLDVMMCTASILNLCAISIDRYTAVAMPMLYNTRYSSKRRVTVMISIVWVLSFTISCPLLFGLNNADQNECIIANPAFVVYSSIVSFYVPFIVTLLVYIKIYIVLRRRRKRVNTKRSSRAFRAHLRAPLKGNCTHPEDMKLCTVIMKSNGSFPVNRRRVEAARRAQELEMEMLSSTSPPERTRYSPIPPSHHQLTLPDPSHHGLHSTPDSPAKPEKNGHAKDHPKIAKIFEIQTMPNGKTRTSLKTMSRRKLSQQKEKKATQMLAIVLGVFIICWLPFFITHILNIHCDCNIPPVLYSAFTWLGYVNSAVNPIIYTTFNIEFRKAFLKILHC
Sequence of human 5-HT2A receptor (P28223 whole entry): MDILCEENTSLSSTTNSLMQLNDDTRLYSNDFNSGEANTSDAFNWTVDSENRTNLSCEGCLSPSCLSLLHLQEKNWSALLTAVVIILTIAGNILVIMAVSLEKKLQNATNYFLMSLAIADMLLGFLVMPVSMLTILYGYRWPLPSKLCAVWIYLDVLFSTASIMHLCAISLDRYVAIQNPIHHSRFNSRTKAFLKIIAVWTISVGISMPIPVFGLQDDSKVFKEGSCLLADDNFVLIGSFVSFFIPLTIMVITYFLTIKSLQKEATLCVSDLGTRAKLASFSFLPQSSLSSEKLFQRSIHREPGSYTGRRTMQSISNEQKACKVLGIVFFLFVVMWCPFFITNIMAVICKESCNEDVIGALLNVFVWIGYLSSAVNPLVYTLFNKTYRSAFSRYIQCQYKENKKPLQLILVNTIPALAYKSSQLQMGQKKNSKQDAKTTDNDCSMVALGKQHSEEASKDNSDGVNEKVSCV
Sequence of human D3 receptor (P35462 whole entry): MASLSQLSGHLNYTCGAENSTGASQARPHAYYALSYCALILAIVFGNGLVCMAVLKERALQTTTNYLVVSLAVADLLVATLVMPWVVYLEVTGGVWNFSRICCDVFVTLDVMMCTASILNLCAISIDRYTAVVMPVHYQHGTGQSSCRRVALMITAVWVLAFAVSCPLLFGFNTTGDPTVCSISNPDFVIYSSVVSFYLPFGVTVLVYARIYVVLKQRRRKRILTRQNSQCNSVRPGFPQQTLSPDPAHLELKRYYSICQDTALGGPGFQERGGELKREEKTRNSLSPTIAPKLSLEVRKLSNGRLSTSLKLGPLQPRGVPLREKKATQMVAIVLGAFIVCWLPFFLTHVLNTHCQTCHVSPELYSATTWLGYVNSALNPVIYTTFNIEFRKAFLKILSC

For `COC(CC(=O)N[C@H]1CC[C@H](CCN2CCC(c3coc4ccccc34)CC2)CC1)OC` [Example 52, trans-N-{4-[2-(4-Benzofuran-3-yl-piperidin-1-yl)-ethyl]-cyclohexyl}-3,3-dimethoxy-propionamide], the melting point is 148 °C. Further, the Ki on human D2 receptor came out at 48.9 nM. For the same compound, the Ki on human D3 receptor was 1.46 nM. Further, the Ki on human 5-HT2A receptor was 5.94 nM.
Compound `CC(C)=CC(=O)N[C@H]1CC[C@H](CCN2CCC(c3coc4ccccc34)CC2)CC1` [Example 53, 3-Methyl-but-2-enoic acid trans-{4-[2-(4-benzofuran-3-yl-piperidin-1-yl)-ethyl]-cyclohexyl}-amide] gave a melting point of 147 °C. Also, the Ki on human D2 receptor was 18 nM. At human D3 receptor, the Ki is 2.83 nM. Besides, the inhibition constant Ki on human 5-HT2A receptor amounted to 9.68 nM.
The matching figures for `C/C=C/CC(=O)N[C@H]1CC[C@H](CCN2CCC(c3coc4ccccc34)CC2)CC1` [Example 54, (E)-Pent-3-enoic acid trans-{4-[2-(4-benzofuran-3-yl-piperidin-1-yl)-ethyl]-cyclohexyl}-amide]: 165 °C, 58 nM, 1.81 nM and 12.3 nM.
With `CC#CC(=O)N[C@H]1CC[C@H](CCN2CCC(c3coc4ccccc34)CC2)CC1` [Example 55, But-2-ynoic acid trans-{4-[2-(4-benzofuran-3-yl-piperidin-1-yl)-ethyl]-cyclohexyl}-amide], the melting point amounted to 161 °C. Also, the Ki at human D2 receptor came out at 25.6 nM. Besides, on human D3 receptor, the Ki was determined as 2.09 nM. Also, the Ki on human 5-HT2A receptor turned out to be 7.89 nM.
The matching figures for `O=CN[C@H]1CC[C@H](CCN2CCC(c3coc4ccccc34)CC2)CC1` [Example 56, trans-N-{4-[2-(4-Benzofuran-3-yl-piperidin-1-yl)-ethyl]-cyclohexyl}-formamide]: 155 °C, 38.8 nM, 2.68 nM and 13.4 nM.
For `CCCCC(=O)N[C@H]1CC[C@H](CCN2CCC(c3coc4ccccc34)CC2)CC1` [Example 57, Pentanoic acid trans-{4-[2-(4-benzofuran-3-yl-piperidin-1-yl)-ethyl]-cyclohexyl}-amide], the melting point was determined as 167 °C. On human D2 receptor, the Ki worked out at 65.7 nM. Further, at human D3 receptor, the Ki stood at 2.21 nM. Moreover, the Ki at human 5-HT2A receptor stood at 13 nM.
The matching figures for `O=C(N[C@H]1CC[C@H](CCN2CCC(c3coc4ccccc34)CC2)CC1)c1ccc2c(c1)OCO2` [Example 58, Benzo[1,3]dioxole-5-carboxylic acid trans-{4-[2-(4-benzofuran-3-yl-piperidin-1-yl)-ethyl]-cyclohexyl}-amide]: 198 °C, 28.6 nM, 2.79 nM and 8.78 nM.
In the same order, the values of `O=C(N[C@H]1CC[C@H](CCN2CCC(c3coc4ccccc34)CC2)CC1)c1ccc(-n2cccn2)cc1` [Example 59, trans-N-[4-{2-(4-Benzofuran-3-yl-piperidin-1-yl)-ethyl]-cyclohexyl}-4-pyrazol-1-yl-benzamide] are 205 °C, 46.9 nM, 5.73 nM and 22.2 nM.
Turning to `CC(C)(C)c1ccc(C(=O)N[C@H]2CC[C@H](CCN3CCC(c4coc5ccccc45)CC3)CC2)cc1` [Example 60, trans-N-{4-[2-(4-Benzofuran-3-yl-piperidin-1-yl)-ethyl]-cyclohexyl}-4-tert-butyl-benzamide], the melting point was 180 °C. Further, the inhibition constant Ki on human D2 receptor was 1110 nM. Moreover, on human D3 receptor, the Ki was 10.1 nM. In addition, the Ki at human 5-HT2A receptor is 3.77 nM.
In the same order, the values of `Cc1nc(-c2ccc(C(=O)N[C@H]3CC[C@H](CCN4CCC(c5coc6ccccc56)CC4)CC3)cc2)no1` [Example 61, trans-N-{4-[2-(4-Benzofuran-3-yl-piperidin-1-yl)-ethyl]-cyclohexyl}-4-(5-methyl-[1,2,4]oxadiazol-3-yl)-benzamide] are 194 °C, 227 nM, 2.87 nM and 15.1 nM.
The matching figures for `CN1CCN(c2ccc(C(=O)N[C@H]3CC[C@H](CCN4CCC(c5coc6ccccc56)CC4)CC3)cc2)CC1` [Example 62, trans-N-{4-[2-(4-Benzofuran-3-yl-piperidin-1-yl)-ethyl]-cyclohexyl}-4-(4-methyl-piperazin-1-yl)-benzamide]: 242 °C, 50.1 nM, 6.03 nM and 8.83 nM.
`O=C(N[C@H]1CC[C@H](CCN2CCC(c3coc4ccccc34)CC2)CC1)c1ccc(-c2ccccc2)cc1` [Example 63, Biphenyl-4-carboxylic acid trans-{4-[2-(4-benzofuran-3-yl-piperidin-1-yl)-ethyl]-cyclohexyl}-amide] gave a melting point of 235 °C. Besides, at human D2 receptor, the Ki worked out at 22.1 nM. Also, the Ki on human D3 receptor is 3.37 nM. Moreover, the Ki on human 5-HT2A receptor is 5.21 nM.
The matching figures for `O=C(N[C@H]1CC[C@H](CCN2CCC(c3coc4ccccc34)CC2)CC1)c1ccc(-c2cccnc2)cc1` [Example 64, trans-N-{4-[2-(4-Benzofuran-3-yl-piperidin-1-yl)-ethyl]-cyclohexyl}-4-pyridin-3-yl-benzamide]: 224 °C, 16.7 nM, 4.55 nM and 12.8 nM.
The compound `O=C(N[C@H]1CC[C@H](CCN2CCC(c3coc4ccccc34)CC2)CC1)c1ccc(N2CCOCC2)nc1` [Example 65, trans-N-{4-[2-(4-Benzofuran-3-yl-piperidin-1-yl)-ethyl]-cyclohexyl}-6-morpholin-4-yl-nicotinamide] displayed a melting point of 215 °C. Moreover, at human D2 receptor, the Ki was 51.8 nM. The Ki on human D3 receptor was 3.49 nM. In addition, the inhibitory constant (Ki) at human 5-HT2A receptor came to 7.56 nM.
The matching figures for `O=C(N[C@H]1CC[C@H](CCN2CCC(c3coc4ccccc34)CC2)CC1)c1ccc(N2CCS(=O)(=O)CC2)cc1` [Example 66, trans-N-{4-[2-(4-Benzofuran-3-yl-piperidin-1-yl)-ethyl]-cyclohexyl}-4-(1,1-dioxo-1λ6-thiomorpholin-4-yl)-benzamide]: 269 °C, 19.2 nM, 3.4 nM and 10.1 nM.
In turn, `O=C(N[C@H]1CC[C@H](CCN2CCC(c3coc4ccccc34)CC2)CC1)c1cnc(N2CCOCC2)cn1` [Example 67, 5-Morpholin-4-yl-pyrazine-2-carboxylic acid trans-{4-[2-(4-benzofuran-3-yl-piperidin-1-yl)-ethyl]-cyclohexyl}-amide] yielded a melting point of 202 °C. Further, on human D2 receptor, the Ki came to 106 nM. The Ki at human D3 receptor worked out at 7.72 nM. Further, on human 5-HT2A receptor, the Ki amounted to 8.2 nM.
Compound `O=C(N[C@H]1CC[C@H](CCN2CCC(c3coc4ccccc34)CC2)CC1)c1ccc(-n2cccc2)cc1` [Example 68, trans-N-{4-[2-(4-Benzofuran-3-yl-piperidin-1-yl)-ethyl]-cyclohexyl}-4-pyrrol-1-yl-benzamide] returned a melting point of 212 °C. Further, the inhibition constant (Ki) at human D2 receptor worked out at 34.3 nM. On human D3 receptor, the inhibitory constant (Ki) came out at 4.58 nM. Further, the inhibition constant Ki on human 5-HT2A receptor amounted to 10.2 nM.
In the same order, the values of `Cc1ccc(C(=O)N[C@H]2CC[C@H](CCN3CCC(c4coc5ccccc45)CC3)CC2)cn1` [Example 69, trans-N-{4-[2-(4-Benzofuran-3-yl-piperidin-1-yl)-ethyl]-cyclohexyl}-6-methyl-nicotinamide] are 203 °C, 28.1 nM, 2.53 nM and 5.11 nM.
In the same order, the values of `N#Cc1ccc(C(=O)N[C@H]2CC[C@H](CCN3CCC(c4coc5ccccc45)CC3)CC2)cc1` [Example 70, trans-N-{4-[2-(4-Benzofuran-3-yl-piperidin-1-yl)-ethyl]-cyclohexyl}-4-cyano-benzamide] are 195 °C, 15.2 nM, 2.68 nM and 5.89 nM.
`CC(C)(C)Oc1ccc(C(=O)N[C@H]2CC[C@H](CCN3CCC(c4coc5ccccc45)CC3)CC2)cc1` [Example 71, trans-N-{4-[2-(4-Benzofuran-3-yl-piperidin-1-yl)-ethyl]-cyclohexyl}-4-tert-butoxy-benzamide] had a melting point of 186 °C. On human D2 receptor, the Ki stood at 168 nM. The inhibition constant Ki on human D3 receptor is 2.14 nM. The inhibition constant (Ki) at human 5-HT2A receptor came out at 5.56 nM.
In turn, `CO[C@H]1CC[C@H](CC(=O)N[C@H]2CC[C@H](CCN3CCC(c4coc5ccccc45)CC3)CC2)CC1` [Example 72, trans-N-{4-[2-(4-Benzofuran-3-yl-piperidin-1-yl)-ethyl]-cyclohexyl}-2-trans-(4-methoxy-cyclohexyl)-acetamide] came in with a melting point of 179 °C. Besides, the Ki at human D2 receptor is 67.4 nM. Also, on human D3 receptor, the Ki was 3.09 nM. The Ki on human 5-HT2A receptor turned out to be 8.14 nM.
The matching figures for `O=C(N[C@H]1CC[C@H](CCN2CCC(c3coc4ccccc34)CC2)CC1)c1ccc2ncccc2c1` [Example 73, Quinoline-6-carboxylic acid trans-{4-[2-(4-benzofuran-3-yl-piperidin-1-yl)-ethyl]-cyclohexyl}-amide]: 192 °C, 103 nM, 2.42 nM and 11 nM.
